A short description of data set [1]: Physical stability, photo-stability and relative solubility of the drug substance. The data set is classed as physicochemical. The source says: Several additional challenges exist concerning the use of Compound A in a pediatric formulation.
The potential for unacceptable levels of photo-degradation is of particular importance since photo-catalyzed degradation products may be potentially toxic.

Data set [2] in a line: Trametinib concentration profile as a function of time and Cavitron concentration (FIG. 2).
Data set [3] can be described thus: Aqueous solubility of trametinib in the presence of various solubilizers (FIG. 1). Format: physicochemical. From the text: FIG. 1 depicts the aqueous solubility of trametinib in the presence of various solubilizers.
As used herein, “solubilizer” is a substance (liquid or solid) that helps to keep the drug uniformly dispersed and dissolved in solution. A solubilizer prevents recrystallization and precipitation of the dissolved drug out of solution. For use in the present invention, suitable solubilizers include, but are not limited to, hypromellose, polyvinylpyrrolidone, sulfobutylether B-cyclodextrin (Captisol) and hydroxypropyl B-cyclodextrin (Cavitron). A combination of solubilizers can also be used. […] Suitably, the amount of solubilizer in a formulation according to the invention will be selected from: about 30 to 95%; suitably about 50 to 80%; suitably about 65 to 75%; by weight of the final product. Suitably, the amount of solubilizer in a formulation according to the invention will be selected from: about 30%; suitably about 35%, suitably about 40%, suitably about 45%, suitably about 50%, suitably about 55%, suitably about 60%, suitably about 65%, suitably about 70%, suitably about 75%, suitably about 80%, suitably about 85%, suitably about 90%, and suitably about 95%, by weight of the final product.

Data set [4] in a line: Effect of HPMC and solubilizers on aqueous solubility of trametinib (FIG. 3). The following applies: HPMC present in a cavitron solution, initial 1 mg/mL. The data set is classed as physicochemical.
Data set [5] is described as follows: Solubility profile at 0.05 mg/mL using solubilizers as a function of time (FIG. 4). Format: physicochemical. The settings on record: 30 days, 25° C. and 60% relative humidity.
Data set [6] can be described thus: Exposure and absorption upon in vivo administration. From the text:
Suitably the powder for oral solution (POS) of the current invention contain micronized Compound A where at least 90% of the particles of Compound A are from 1 to 20 microns, suitably from 2.2 to 10.5 microns, such formulations provide an acceptable exposure/absorption profile. Suitably the powder for oral solution (POS) of the current invention contains micronized Compound A where at least 50% of the particles of Compound A are from 1 to 6 microns, suitably from 1.5 to 4.3 microns, such formulations provide an acceptable exposure/absorption profile. Suitably the powder for oral solution (POS) of the current invention contains micronized Compound A where at least 10% of the particles of Compound A are from 0.01 to 3.0 microns, suitably from 0.77 to 1.3 microns, such formulations provide an acceptable exposure/absorption profile. Such formulations help provide safe and effective treatment.

Data set [7] deals with BRAF V600-mutation positive metastatic melanoma. The settings on record: subjects with BRAF V600-mutation positive metastatic melanoma, Phase III study; cited from earlier work.

The source of these data is patent US20150328320A1, “Novel Pharmaceutical Composition” (GLAXOSMITHKLINE LLC, priority 2012, published 2015).

Each structure is given as a SMILES string. Entries after “also recorded” stand apart in the source; their conditions may differ.

As to `CC(=O)Nc1cccc(-n2c(=O)n(C3CC3)c(=O)c3c(Nc4ccc(I)cc4F)n(C)c(=O)c(C)c32)c1` [Compound B, N-{3-[3-cyclopropyl-5-(2-fluoro-4-iodo-phenylamino)-6,8-dimethyl-2,4,7-trioxo-3,4,6,7-tetrahydro-2H-pyrido[4,3-d]pyrimidin-1-yl]phenyl}acetamide], the “solubility relative to Compound A” value in data set [1] was “much less soluble than Compound A”. Also, the “precipitation out of solution” value in data set [2] (starting concentration ~0.05 mg/mL, conditions of FIG. 2) is recorded as “no significant amount of the drug will precipitate out of solution”.
Take `CC(=O)Nc1cccc(-n2c(=O)n(C3CC3)c(=O)c3c(Nc4ccc(I)cc4F)n(C)c(=O)c(C)c32)c1` [Compound A, N-{3-[3-cyclopropyl-5-(2-fluoro-4-iodo-phenylamino)-6,8-dimethyl-2,4,7-trioxo-3,4,6,7-tetrahydro-2H-pyrido[4,3-d]pyrimidin-1-yl]phenyl}acetamide dimethyl sulfoxide solvate]: the aqueous solubility entry is “good aqueous solubility” in data set [3] (hypromellose and hydroxypropyl B-cyclodextrin combined); “greatest solubility” in data set [3] (in hydroxypropyl B-cyclodextrin (Cavitron) formulation); “very low aqueous solubility” in data set [3] (in polyethylene glycol (PEG) solution); “generally not soluble” in data set [3] (in polyethylene glycol (PEG) solution, listed as Trametinib); “very low aqueous solubility” in data set [3] (in propylene glycol solution); “generally not soluble” in data set [3] (in propylene glycol solution, listed as Trametinib). The “stability of solution (precipitation)” value in data set [4] is given as “increases the stability of trametinib solution”. Moreover, the “solubility and solution stability over time” value is “able to maintain the solubility and stabilize the solution for 30 days” in data set [5] (captisol solution); “able to maintain the solubility and stabilize the solution for 30 days” in data set [5] (cavitron solution). The “physical stability of the solvate (desolvation)” value in data set [1] (high humidity or aqueous environment, handling and formulation) is on record as “favors conversion from the dimethyl sulfoxide solvate to the de-solvated form; also recorded: can undergo desolvation”. Moreover, the photo-stability entry in data set [1] (light) was “very sensitive to light; also recorded: can suffer from photo-instability”. The exposure and absorption result in data set [6] was “poor exposure and absorption”. Besides, the anti-tumor activity result in data set [7] was “has shown anti-tumor activity”. Also, in data set [2] (Cavitron solutions, initial concentration 1 mg/mL, after five days), the “trametinib concentration remaining in solution” value is listed as 7-10 % of the initial concentration.
